Results from EP1561465A2, “Methods of use of fluoroquinolone compounds against bacteria” (LG Life Sciences, Ltd., priority 1999, dated 2001).
≈ marks a conversion by molar mass, not a printed value. Like-named read-outs stand apart in the source and are kept apart here.

Experiments:
Type in all cases: cell-based
[1] = system: Haemophilus influenzae; assay: MIC by agar dilution (NCCLS), 411 isolates Buenos Aires 1998-99; settings: Haemophilus influenzae (n = 65)
[2] = system: S. aureus; assay: Urinary bactericidal titers (UBT) and AUBTC of volunteers' urine; settings: urine after gemifloxacin 320 mg or ofloxacin 400 mg
[3] = system: P. aeruginosa; assay: as above; settings: P. aeruginosa (16) Laboratory No. 568; urine after gemifloxacin 320 mg or ofloxacin 400 mg
[4] = system: E. faecalis; assay: as above; settings: urine after gemifloxacin 320 mg or ofloxacin 400 mg
[5] = system: S. aureus; assay: MIC and MBC by microdilution in Mueller-Hinton broth, uropathogens; settings: Staphylococcus aureus
Description: (§1) MICs and MBCs were determined by a microdilution method with Mueller-Hinton broth. An inoculum of 1.3-9.4 x 10^5 colony forming units (CFU) per ml was used.
(§2) Strains included a reference strain E. coli ATCC 25922, susceptible to nalidixic acid (Nal-S) and the following clinical isolates obtained from complicated UTI patients: E. coli (resistant to nalidixic acid), K. pneumoniae, P. mirabilis , P. aeruginosa, […] (3 strains) and Enterococcus faecalis (2 strains).

[6] = system: P. mirabilis; assay: as above
Description: as §1, §2

[7] = system: E. faecalis; assay: as above; settings: Enterococcus faecalis
Description: as §1, §2

[8] = system: P. aeruginosa; assay: as above
Description: as §1, §2

[9] = system: K. pneumoniae; assay: as above
Description: as §1, §2

[10] = system: Streptococcus pyogenes; assay: MIC by agar dilution (NCCLS), 411 isolates Buenos Aires 1998-99; settings: Streptococcus pyogenes (n = 69)
[11] = system: P. mirabilis; assay: Urinary bactericidal titers (UBT) and AUBTC of volunteers' urine; settings: P. mirabilis (16) Laboratory No. 414; urine after gemifloxacin 320 mg or ofloxacin 400 mg
[12] = system: Shigella spp.; assay: MIC by agar dilution (NCCLS M7-A4), 288 enteropathogenic isolates, gemifloxacin and 15 other antimicrobials; settings: Shigella spp. N= 21
Outline: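 Agar dilution with ~10^4 cfu/spot inoculum; plates incubated aerobically at 35 °C for 24 h, except C. jejuni, held microaerophilically for 48 h. MIC taken as lowest antibiotic concentration with no visible growth.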

[13] = system: E. coli; assay: Urinary bactericidal titers (UBT) and AUBTC of volunteers' urine; settings: for AUBTC (range): urine after gemifloxacin 320 mg or ofloxacin 400 mg
[14] = S. aureus Laboratory No. 83, inoculum 7.1 CFU 10^5/ml
[15] = S. aureus Laboratory No. 161, inoculum 9.4 CFU 10^5/ml
[16] = S. aureus Laboratory No. 636, inoculum 5.6 CFU 10^5/ml
[17] = E. faecalis Laboratory No. 55, inoculum 6.0 CFU 10^5/ml
[18] = E. faecalis Laboratory No. 60, inoculum 7.0 CFU 10^5/ml

CC1COc2c(N3CCN(C)CC3)c(F)cc3c(=O)c(C(=O)O)cn1c23 (centres unmarked) [Ofloxacin, ofloxacin] was tested, and the MIC90 [1] was 0.06 µg/mL (≈ 0.166 µM), the “MIC Range” value [1] was 0.008 to 0.25 µg/mL and the “AUBTC (range)” value ([2]; S. aureus (13) Laboratory No. 636) was 105 (0-279). For the same compound, the “AUBTC (range)” value ([2]; S. aureus (16) Laboratory No. 83) was 387 (162-570), the “AUBTC (range)” value ([2]; S. aureus (16) Laboratory No. 161) was 39 (0-78) and the “AUBTC (range)” value [3] was 99 (42-258). For the same compound, the “AUBTC (range)” value ([4]; E. faecalis (13) Laboratory No. 55) was 0 (0-54), the “AUBTC (range)” value ([4]; E. faecalis (16) Laboratory No. 60) was 135 (90-204) and the MBC [5, 14] was 0.25 µg/mL (≈ 0.692 µM). For the same compound, the MIC [5, 14] was 0.25 µg/mL (≈ 0.692 µM), the MBC [5, 15] was 4 µg/mL (≈ 11.1 µM) and the MIC [5, 15] was 4 µg/mL (≈ 11.1 µM). For the same compound, the MBC [5, 16] was 32 µg/mL (≈ 88.6 µM), the MIC [5, 16] was 32 µg/mL (≈ 88.6 µM) and the MIC ([5]; S. aureus isolate (0.008/0.25)) was 0.25 µg/mL (≈ 0.692 µM). The MIC ([5]; S. aureus isolate (0.25/4)) was 4 µg/mL (≈ 11.1 µM), the MIC ([5]; S. aureus isolate (2/32), quinolone-resistant) was 32 µg/mL (≈ 88.6 µM) and the MIC ([6]; P. mirabilis Laboratory No. 414, inoculum 2.5 CFU 10^5/ml) was 0.125 µg/mL (≈ 0.346 µM). The MIC ([6]; Proteus mirabilis) was 0.125 µg/mL (≈ 0.346 µM), the MBC ([6]; Proteus mirabilis, P. mirabilis Laboratory No. 414, inoculum 2.5 CFU 10^5/ml) was 0.125 µg/mL (≈ 0.346 µM) and the MBC [7, 17] was 128 µg/mL (≈ 354 µM). The MIC [7, 17] was 32 µg/mL (≈ 88.6 µM), the MBC [7, 18] was 2 µg/mL (≈ 5.53 µM) and the MIC [7, 18] was 2 µg/mL (≈ 5.53 µM). For the same compound, the MIC ([7]; E. faecalis isolate (0.06/2)) was 2 µg/mL (≈ 5.53 µM), the MIC ([7]; E. faecalis isolate (0.5/32)) was 32 µg/mL (≈ 88.6 µM) and the MIC ([8]; P. aeruginosa Laboratory No. 568, inoculum 5.6 CFU 10^5/ml) was 4 µg/mL (≈ 11.1 µM). It also gave an MBC ([8]; Pseudomonas aeruginosa, P. aeruginosa Laboratory No. 568, inoculum 5.6 CFU 10^5/ml) of 4 µg/mL (≈ 11.1 µM), an MIC ([8]; Pseudomonas aeruginosa, P. aeruginosa clinical isolate, read-out: MIC) of 4 µg/mL (≈ 11.1 µM) and an MIC ([9]; K. pneumoniae Laboratory No. 595, inoculum 3.7 CFU 10^5/ml) of 0.06 µg/mL (≈ 0.166 µM). The MBC ([9]; Klebsiella pneumoniae, K. pneumoniae Laboratory No. 595, inoculum 3.7 CFU 10^5/ml) was 0.06 µg/mL (≈ 0.166 µM), the MIC ([9]; Klebsiella pneumoniae, K. pneumoniae clinical isolate, read-out: MIC) was 0.06 µg/mL (≈ 0.166 µM) and the “MIC Range” value [10] was 0.5 to 4 µg/mL. The MIC90 ([10]; read-out: MIC90) was 2 µg/mL (≈ 5.53 µM), the “AUBTC (range)” value [11] was 438 (276-654) and the MIC ([12]; 24 h, read-out: MIC (mg/L) Range) was 0.015 to 0.06 mg/L (≈ 0.0415 to 0.166 µM). The MIC ([12]; read-out: MIC (mg/L) 50%) was 0.03 mg/L (≈ 0.083 µM), the MIC ([12]; read-out: MIC (mg/L) 90%) was 0.06 mg/L (≈ 0.166 µM) and the “AUBTC (range)” value ([13]; E. coli (16) ATCC 25922) was 537 (258-888). For the same compound, the “AUBTC (range)” value ([13]; E. coli (16) Laboratory No. 523) was 276 (90-516) and the “time for which median UBTs exceed 0” value ([13]; reference strain E. coli ATCC 25922, 320 mg gemifloxacin / 400 mg ofloxacin) was 4 days.
